# Results reported in ChEMBL document CHEMBL1201862, “PubChem BioAssay data set” (2004).
#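 Protocol summary: plate cells (96-well), add compound at 5 concentrations, incubate 48 h, interpolate endpoints linearly. GI50 = concentration required for 50% inhibition of growth.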 The source made the active and inactive calls. Cut-off read from the data, not from the text of the source: active = GI50 up to about 1.1 µM and inactive = higher.
# Tests used:
# Assay in all cases: NCI tumour cell line growth inhibition, 48 h
# [1] = system: SNB-19
# [2] = system: OVCAR-3
# [3] = system: HL-60
# [4] = system: OVCAR-8
# [5] = system: SK-OV-3
# [6] = system: K562
# [7] = system: OVCAR-4
# [8] = system: SF-539
# [9] = system: 786-0
# [10] = system: U-251
# [11] = system: TK-10
# [12] = system: HCT-15
# [13] = system: CAKI-1
# [14] = system: RXF 393
# [15] = system: Malme-3M
# [16] = system: NCI-H23
# [17] = system: SK-MEL-28
# [18] = system: Hs-578T
# [19] = system: BT-549
# [20] = system: MDA-N
Compound,GI50 [1],GI50 [2],GI50 [3],GI50 [4],GI50 [5],GI50 [6],GI50 [7],GI50 [8],GI50 [9],GI50 [10],GI50 [11],GI50 [12] [µM],GI50 [13],GI50 [14],GI50 [15],GI50 [16],GI50 [17],GI50 [18],GI50 [19],GI50 [20]
CC(=O)Nc1ccc(C2CC(c3ccc([N+](=O)[O-])cc3)=Nc3ccccc3S2)cc1 (configuration not stated),22.7 µM (inactive),23.2 µM (inactive),21.3 µM (inactive),16.6 µM (inactive),40.6 µM (inactive),4.73 µM (inactive),19.7 µM (inactive),17.7 µM (inactive),17.4 µM (inactive),15.2 µM (inactive),23.9 µM (inactive),17.1,24 µM (inactive),19.3 µM (inactive),18.3 µM (inactive),> 10 µM (inactive),18.7 µM (inactive),,,
COc1ccc2oc(C(=O)N3CC(CCl)c4ccc([N+](=O)[O-])cc43)cc2c1 (configuration not stated),25.2 µM (inactive),,,17.2 µM (inactive),13.2 µM (inactive),> 100 µM (inactive),15.2 µM (inactive),14 µM (inactive),16.2 µM (inactive),26 µM (inactive),33.2 µM (inactive),,15.4 µM (inactive),13.4 µM (inactive),,73.8 µM (inactive),> 100 µM (inactive),9.12 µM (inactive),42.3 µM (inactive),
[N-]=[N+]=C1CNC(=O)NC1=O,> 100 µM (inactive),> 100 µM (inactive),34 µM (inactive),> 100 µM (inactive),> 100 µM (inactive),> 100 µM (inactive),> 100 µM (inactive),> 100 µM (inactive),60.4 µM (inactive),> 100 µM (inactive),> 100 µM (inactive),> 100,> 100 µM (inactive),> 100 µM (inactive),> 100 µM (inactive),> 100 µM (inactive),> 100 µM (inactive),> 100 µM (inactive),,> 100 µM (inactive)
CCOC(=O)CC1c2ccc(O)cc2OC(=O)C1c1ccc([N+](=O)[O-])cc1 (configuration not stated),63.5 µM (inactive),28.8 µM (inactive),34.1 µM (inactive),29 µM (inactive),33.3 µM (inactive),30.4 µM (inactive),27.7 µM (inactive),31 µM (inactive),41.3 µM (inactive),35.8 µM (inactive),30.3 µM (inactive),30.4,43 µM (inactive),16.9 µM (inactive),27.4 µM (inactive),27.7 µM (inactive),38 µM (inactive),46.7 µM (inactive),,28.6 µM (inactive)
CC(C)(C)C1=C(Br)C(OC(=O)C(F)(F)F)(C(C)(C)C)OP1(=O)c1ccccc1 (configuration not stated),57.4 µM (inactive),31.9 µM (inactive),24.8 µM (inactive),34.7 µM (inactive),39.1 µM (inactive),25.5 µM (inactive),49.1 µM (inactive),37.9 µM (inactive),40.2 µM (inactive),35.6 µM (inactive),79.3 µM (inactive),31.5,0.0643 µM (active),,65 µM (inactive),33.7 µM (inactive),> 100 µM (inactive),23.7 µM (inactive),,60.8 µM (inactive)
CN(Cc1cnc2c(n1)C(N)=NN(N)N2)c1ccc(C(=O)NC(CCP(=O)(O)O)C(=O)O)cc1 (configuration not stated),> 30.7 µM (inactive),> 100 µM (inactive),0.252 µM (active),> 36.2 µM (inactive),> 100 µM (inactive),> 100 µM (inactive),> 100 µM (inactive),3.47 µM (inactive),1.86 µM (inactive),> 91 µM (inactive),> 100 µM (inactive),6.14,> 52.8 µM (inactive),6.22 µM (inactive),> 23.8 µM (inactive),14.9 µM (inactive),> 85.7 µM (inactive),> 100 µM (inactive),16 µM (inactive),
